Values joined by “and” are separate entries in the source; they are usually repeats but may differ in a detail not shown here. Equal values may be shown once.
Legend:
Assay in all cases: KINOMEscan competition binding
Settings in all cases: compound 10.0 µM
RPS6KA3 KD2 (human) = RPS6KA3 KD2 (human) (UniProt P51812)
SGK1 (human) = SGK1 (human) (UniProt O00141)
MAPK6 (human) = MAPK6 (human) (UniProt Q16659)
EPHA5 (human) = EPHA5 (human) (UniProt P54756)
CSNK1G3 (human) = CSNK1G3 (human) (UniProt Q9Y6M4)
MYLK2 (human) = MYLK2 (human) (UniProt Q9H1R3)
PIK3CD (human) = PIK3CD (human) (UniProt O00329)
MARK3 (human) = MARK3 (human) (UniProt P27448)
LYN (human) = LYN (human) (UniProt P07948)
[1] = biological target: JAK1 JH1 catalytic (human) (UniProt P23458)
MERTK (human) = MERTK (human) (UniProt Q12866)
MAP3K6 (human) = MAP3K6 (human) (UniProt O95382)
MAP4K4 (human) = MAP4K4 (human) (UniProt O95819)
FGFR1 (human) = FGFR1 (human) (UniProt P11362)
MAP3K3 (human) = MAP3K3 (human) (UniProt Q99759)
NLK (human) = NLK (human) (UniProt Q9UBE8)
RIOK2 (human) = RIOK2 (human) (UniProt Q9BVS4)
PIP4K2C (human) = PIP4K2C (human) (UniProt Q8TBX8)
PKN1 (human) = PKN1 (human) (UniProt Q16512)
CSNK1A1L (human) = CSNK1A1L (human) (UniProt Q8N752)
FLT3 (human) = FLT3 (human) (UniProt P36888)
GSG2 (human) = GSG2 (human) (UniProt Q8TF76)
BRAF (human) = BRAF (human) (UniProt P15056)
ULK1 (human) = ULK1 (human) (UniProt O75385)
MST1R (human) = MST1R (human) (UniProt Q04912)
STK32B (human) = STK32B (human) (UniProt Q9NY57)
PRKD1 (human) = PRKD1 (human) (UniProt Q15139)
[2] = biological target: TYK2 JH2 pseudokinase (human) (UniProt P29597)
STK16 (human) = STK16 (human) (UniProt O75716)
RPS6KA4 KD2 (human) = RPS6KA4 KD2 (human) (UniProt O75676)
MAP3K4 (human) = MAP3K4 (human) (UniProt Q9Y6R4)
TLK1 (human) = TLK1 (human) (UniProt Q9UKI8)
BUB1 (human) = BUB1 (human) (UniProt O43683)
CSNK2A1 (human) = CSNK2A1 (human) (UniProt P68400)
PAK7 (human) = PAK7 (human) (UniProt Q9P286)
CSNK1A1 (human) = CSNK1A1 (human) (UniProt P48729)
MAPK7 (human) = MAPK7 (human) (UniProt Q13164)
MAP4K1 (human) = MAP4K1 (human) (UniProt Q92918)
PIK3CB (human) = PIK3CB (human) (UniProt P42338)
ABL1 (human) = ABL1 (human) (UniProt P00519)

Sequence of CSNK1G3 (human) (Q9Y6M4 whole entry, looked up): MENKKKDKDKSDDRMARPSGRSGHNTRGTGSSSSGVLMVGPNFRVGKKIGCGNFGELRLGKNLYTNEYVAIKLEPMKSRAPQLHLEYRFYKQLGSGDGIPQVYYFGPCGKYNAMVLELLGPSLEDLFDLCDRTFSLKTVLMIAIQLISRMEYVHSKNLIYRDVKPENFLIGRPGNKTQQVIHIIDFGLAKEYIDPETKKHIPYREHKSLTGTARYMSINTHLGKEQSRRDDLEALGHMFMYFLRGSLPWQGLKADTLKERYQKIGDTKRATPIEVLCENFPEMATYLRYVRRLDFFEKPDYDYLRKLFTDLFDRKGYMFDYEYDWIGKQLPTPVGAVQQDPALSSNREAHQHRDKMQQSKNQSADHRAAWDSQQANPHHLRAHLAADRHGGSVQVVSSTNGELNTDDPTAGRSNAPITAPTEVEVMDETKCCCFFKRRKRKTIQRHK
Sequence of BUB1 (human) (O43683 whole entry, looked up): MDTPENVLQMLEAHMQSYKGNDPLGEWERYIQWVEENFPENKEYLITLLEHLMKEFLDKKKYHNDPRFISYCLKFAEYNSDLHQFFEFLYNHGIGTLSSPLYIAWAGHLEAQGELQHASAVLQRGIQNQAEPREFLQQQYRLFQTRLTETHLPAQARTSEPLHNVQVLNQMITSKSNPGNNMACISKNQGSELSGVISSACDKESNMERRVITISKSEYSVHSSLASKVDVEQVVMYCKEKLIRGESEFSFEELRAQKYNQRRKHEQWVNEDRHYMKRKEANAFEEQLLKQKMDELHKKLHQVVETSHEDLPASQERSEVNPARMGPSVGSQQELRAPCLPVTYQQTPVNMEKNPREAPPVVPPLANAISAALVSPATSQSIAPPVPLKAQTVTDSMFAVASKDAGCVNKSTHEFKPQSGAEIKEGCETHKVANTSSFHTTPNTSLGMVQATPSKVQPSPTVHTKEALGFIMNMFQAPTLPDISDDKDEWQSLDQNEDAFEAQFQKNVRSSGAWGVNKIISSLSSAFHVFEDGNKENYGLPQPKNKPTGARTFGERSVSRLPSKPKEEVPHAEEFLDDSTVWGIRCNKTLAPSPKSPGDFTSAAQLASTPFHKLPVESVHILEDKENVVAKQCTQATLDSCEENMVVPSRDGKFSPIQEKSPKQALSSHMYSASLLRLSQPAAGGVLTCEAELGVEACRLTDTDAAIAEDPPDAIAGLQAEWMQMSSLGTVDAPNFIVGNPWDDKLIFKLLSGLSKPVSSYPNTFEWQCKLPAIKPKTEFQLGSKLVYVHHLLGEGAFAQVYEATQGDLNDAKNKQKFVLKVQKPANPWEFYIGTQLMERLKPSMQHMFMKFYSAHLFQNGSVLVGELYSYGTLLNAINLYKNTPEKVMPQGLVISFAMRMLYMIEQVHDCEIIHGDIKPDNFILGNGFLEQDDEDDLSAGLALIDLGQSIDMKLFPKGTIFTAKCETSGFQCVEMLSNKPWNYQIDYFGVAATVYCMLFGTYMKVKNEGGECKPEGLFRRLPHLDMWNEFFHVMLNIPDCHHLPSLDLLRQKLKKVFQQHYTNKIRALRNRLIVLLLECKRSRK
Sequence of STK32B (human) (Q9NY57 whole entry, looked up): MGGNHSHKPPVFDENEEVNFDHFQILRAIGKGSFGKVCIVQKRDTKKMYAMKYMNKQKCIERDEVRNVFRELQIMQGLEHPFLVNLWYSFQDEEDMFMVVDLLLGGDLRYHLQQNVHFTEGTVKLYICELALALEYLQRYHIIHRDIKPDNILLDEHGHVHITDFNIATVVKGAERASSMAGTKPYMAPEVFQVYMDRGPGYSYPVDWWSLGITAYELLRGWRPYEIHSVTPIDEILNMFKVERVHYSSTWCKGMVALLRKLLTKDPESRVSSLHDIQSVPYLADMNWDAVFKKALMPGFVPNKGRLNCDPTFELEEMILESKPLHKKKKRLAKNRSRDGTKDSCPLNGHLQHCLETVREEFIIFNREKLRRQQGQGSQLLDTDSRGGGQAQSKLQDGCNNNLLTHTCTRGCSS
Sequence of GSG2 (human) (Q8TF76 whole entry, looked up): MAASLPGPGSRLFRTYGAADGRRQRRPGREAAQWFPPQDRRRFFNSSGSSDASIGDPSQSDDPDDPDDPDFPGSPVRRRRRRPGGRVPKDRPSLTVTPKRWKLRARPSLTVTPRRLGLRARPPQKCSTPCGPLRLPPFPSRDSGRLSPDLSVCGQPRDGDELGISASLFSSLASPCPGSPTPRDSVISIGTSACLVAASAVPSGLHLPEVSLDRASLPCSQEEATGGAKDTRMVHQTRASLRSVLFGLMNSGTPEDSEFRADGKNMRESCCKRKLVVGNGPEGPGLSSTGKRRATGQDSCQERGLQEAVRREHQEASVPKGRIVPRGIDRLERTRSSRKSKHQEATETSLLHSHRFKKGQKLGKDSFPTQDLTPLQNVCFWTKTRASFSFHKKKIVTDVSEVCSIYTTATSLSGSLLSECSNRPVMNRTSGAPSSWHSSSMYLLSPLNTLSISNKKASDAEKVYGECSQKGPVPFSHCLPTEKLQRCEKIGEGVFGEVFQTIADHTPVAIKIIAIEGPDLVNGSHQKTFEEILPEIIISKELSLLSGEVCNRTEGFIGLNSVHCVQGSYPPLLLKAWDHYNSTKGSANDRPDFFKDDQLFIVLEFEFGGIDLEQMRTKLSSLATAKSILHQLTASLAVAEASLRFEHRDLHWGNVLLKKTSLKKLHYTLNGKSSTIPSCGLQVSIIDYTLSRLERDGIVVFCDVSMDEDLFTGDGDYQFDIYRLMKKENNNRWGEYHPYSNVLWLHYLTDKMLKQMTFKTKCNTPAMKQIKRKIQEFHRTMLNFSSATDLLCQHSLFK
Sequence of MST1R (human) (Q04912 whole entry, looked up): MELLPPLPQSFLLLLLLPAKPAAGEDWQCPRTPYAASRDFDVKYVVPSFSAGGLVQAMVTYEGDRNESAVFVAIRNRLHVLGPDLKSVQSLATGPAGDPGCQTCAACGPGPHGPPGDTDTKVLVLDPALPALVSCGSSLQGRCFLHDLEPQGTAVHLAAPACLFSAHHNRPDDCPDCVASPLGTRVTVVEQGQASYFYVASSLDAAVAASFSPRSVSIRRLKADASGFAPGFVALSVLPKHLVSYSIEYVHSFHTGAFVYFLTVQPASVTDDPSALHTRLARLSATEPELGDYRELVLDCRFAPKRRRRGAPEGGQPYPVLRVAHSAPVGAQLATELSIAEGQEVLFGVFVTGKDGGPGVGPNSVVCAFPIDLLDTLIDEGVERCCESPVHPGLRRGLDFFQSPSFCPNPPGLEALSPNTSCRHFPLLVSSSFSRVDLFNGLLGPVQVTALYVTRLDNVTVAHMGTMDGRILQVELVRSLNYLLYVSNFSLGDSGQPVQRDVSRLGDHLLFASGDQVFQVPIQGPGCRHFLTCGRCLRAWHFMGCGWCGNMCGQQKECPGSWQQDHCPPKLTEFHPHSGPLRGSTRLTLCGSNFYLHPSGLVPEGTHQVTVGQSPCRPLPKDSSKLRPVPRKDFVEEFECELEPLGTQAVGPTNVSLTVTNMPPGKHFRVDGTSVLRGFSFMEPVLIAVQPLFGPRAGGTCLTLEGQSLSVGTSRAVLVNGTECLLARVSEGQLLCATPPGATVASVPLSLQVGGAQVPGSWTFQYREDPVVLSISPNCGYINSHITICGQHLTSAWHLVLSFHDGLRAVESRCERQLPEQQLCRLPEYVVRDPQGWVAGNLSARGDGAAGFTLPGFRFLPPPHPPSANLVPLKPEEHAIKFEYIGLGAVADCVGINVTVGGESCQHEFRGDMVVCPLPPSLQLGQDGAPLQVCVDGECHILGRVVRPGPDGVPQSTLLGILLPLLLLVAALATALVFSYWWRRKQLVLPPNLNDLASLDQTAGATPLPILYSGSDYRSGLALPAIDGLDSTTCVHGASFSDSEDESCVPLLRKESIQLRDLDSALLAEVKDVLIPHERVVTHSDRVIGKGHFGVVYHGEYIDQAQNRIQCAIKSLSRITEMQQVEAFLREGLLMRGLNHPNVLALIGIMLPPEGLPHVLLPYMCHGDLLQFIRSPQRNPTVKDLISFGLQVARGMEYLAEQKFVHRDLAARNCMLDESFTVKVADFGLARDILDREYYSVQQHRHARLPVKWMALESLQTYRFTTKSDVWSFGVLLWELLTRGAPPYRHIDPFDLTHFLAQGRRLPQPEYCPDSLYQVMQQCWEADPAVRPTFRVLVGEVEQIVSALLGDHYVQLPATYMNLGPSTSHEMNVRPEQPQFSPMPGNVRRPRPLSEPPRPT
Sequence of RIOK2 (human) (Q9BVS4 whole entry, looked up): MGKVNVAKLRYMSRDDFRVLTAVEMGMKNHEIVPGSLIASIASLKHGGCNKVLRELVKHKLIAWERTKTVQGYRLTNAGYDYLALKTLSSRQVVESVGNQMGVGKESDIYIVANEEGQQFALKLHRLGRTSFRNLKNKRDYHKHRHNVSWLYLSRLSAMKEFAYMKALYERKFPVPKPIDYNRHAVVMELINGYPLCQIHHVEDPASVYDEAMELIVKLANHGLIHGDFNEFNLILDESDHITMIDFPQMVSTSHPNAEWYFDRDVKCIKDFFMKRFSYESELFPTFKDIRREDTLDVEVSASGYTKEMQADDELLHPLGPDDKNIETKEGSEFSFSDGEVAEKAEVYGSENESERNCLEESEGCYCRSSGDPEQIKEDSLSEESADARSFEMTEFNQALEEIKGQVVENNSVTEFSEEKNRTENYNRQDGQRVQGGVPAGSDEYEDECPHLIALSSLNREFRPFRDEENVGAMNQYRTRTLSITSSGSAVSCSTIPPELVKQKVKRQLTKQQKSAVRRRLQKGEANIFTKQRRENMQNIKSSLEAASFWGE
Sequence of STK16 (human) (O75716 whole entry, looked up): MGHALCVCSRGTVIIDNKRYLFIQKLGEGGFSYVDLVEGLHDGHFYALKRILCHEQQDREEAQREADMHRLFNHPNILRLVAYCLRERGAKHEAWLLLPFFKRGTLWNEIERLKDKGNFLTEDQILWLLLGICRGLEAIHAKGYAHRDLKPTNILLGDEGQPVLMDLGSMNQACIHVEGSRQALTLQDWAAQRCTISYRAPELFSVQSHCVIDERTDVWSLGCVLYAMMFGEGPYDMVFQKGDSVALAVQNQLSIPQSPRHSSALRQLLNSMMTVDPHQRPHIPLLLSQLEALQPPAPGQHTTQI

Row | SMILES | kinase still bound, per cent of control (MAPK6 (human)) [%] | kinase still bound, per cent of control (EPHA5 (human)) [%] | kinase still bound, per cent of control (CSNK1G3 (human)) [%] | kinase still bound, per cent of control (MYLK2 (human)) [%] | kinase still bound, per cent of control (PIK3CD (human)) [%] | kinase still bound, per cent of control (MARK3 (human)) [%] | kinase still bound, per cent of control (LYN (human)) [%] | kinase still bound, per cent of control [1] [%] | kinase still bound, per cent of control (MERTK (human)) [%] | kinase still bound, per cent of control (MAP3K6 (human)) [%] | kinase still bound, per cent of control (FGFR1 (human)) [%] | kinase still bound, per cent of control (MAP3K3 (human)) [%] | kinase still bound, per cent of control (NLK (human)) [%] | kinase still bound, per cent of control (RIOK2 (human)) [%] | kinase still bound, per cent of control (PKN1 (human)) [%] | kinase still bound, per cent of control (CSNK1A1L (human)) [%] | kinase still bound, per cent of control (BRAF (human)) [%] | kinase still bound, per cent of control (ULK1 (human)) [%] | kinase still bound, per cent of control (MST1R (human)) [%] | kinase still bound, per cent of control (STK32B (human)) [%] | further results
1 | CNC(=O)Nc1ccc(-c2nc(N3CC4CCC(C3)O4)c3cnn(C4CCC5(CC4)OCCO5)c3n2)cc1 | 85 | 92 | 48 | 100 | 5.7 | 92 | 85 | 82 | 87 | 80 | 100 | 100 | 85 | 90 | 100 | 100 | 100 | 100 | 100 | 86 | kinase still bound, per cent of control (RPS6KA3 KD2 (human)): 100%; kinase still bound, per cent of control (SGK1 (human)): 100%; kinase still bound, per cent of control (MAP4K4 (human)): 85%; kinase still bound, per cent of control (PIP4K2C (human)): 100%; kinase still bound, per cent of control (FLT3 (human)): 75% and 77%; kinase still bound, per cent of control (GSG2 (human)): 100%; kinase still bound, per cent of control (PRKD1 (human)): 100%; kinase still bound, per cent of control [2]: 100%; kinase still bound, per cent of control (STK16 (human)): 98%; kinase still bound, per cent of control (RPS6KA4 KD2 (human)): 100%; kinase still bound, per cent of control (MAP3K4 (human)): 86%; kinase still bound, per cent of control (TLK1 (human)): 86%; kinase still bound, per cent of control (BUB1 (human)): 52%; kinase still bound, per cent of control (CSNK2A1 (human)): 80%; kinase still bound, per cent of control (PAK7 (human)): 100%; kinase still bound, per cent of control (CSNK1A1 (human)): 100%; kinase still bound, per cent of control (MAPK7 (human)): 100%; kinase still bound, per cent of control (MAP4K1 (human)): 94%; kinase still bound, per cent of control (PIK3CB (human)): 46%
2 | CCOc1cc(N2CCC(O)CC2)ccc1Nc1ncc2c(n1)N(C)c1ccccc1C(=O)N2C | 100 | 100 | 100 | 100 | 100 | 100 | 100 | 100 | 100 | 100 | 100 | 100 | 100 | 100 | 100 | 100 | 100 | 100 | 100 | 100 | kinase still bound, per cent of control (MAP4K4 (human)): 100%; kinase still bound, per cent of control (FLT3 (human)): 100%; kinase still bound, per cent of control (PRKD1 (human)): 100%; kinase still bound, per cent of control [2]: 100%; kinase still bound, per cent of control (STK16 (human)): 100%; kinase still bound, per cent of control (RPS6KA4 KD2 (human)): 100%; kinase still bound, per cent of control (MAP3K4 (human)): 100%; kinase still bound, per cent of control (TLK1 (human)): 100%; kinase still bound, per cent of control (ABL1 (human)): 100%; kinase still bound, per cent of control (CSNK2A1 (human)): 100%; kinase still bound, per cent of control (PAK7 (human)): 100%; kinase still bound, per cent of control (MAPK7 (human)): 0%; kinase still bound, per cent of control (MAP4K1 (human)): 100%; kinase still bound, per cent of control (PIK3CB (human)): 100%
3 | O=c1[nH]c2ccccc2n1C1CCN(Cc2ccc(-c3nc4cc5[nH]cnc5cc4nc3-c3ccccc3)cc2)CC1 | 100 | 100 | 93 | 86 | 51 | 72 | 72 | 100 | 95 | 100 | 73 | 83 | 87 | 79 | 100 | 80 | 87 | 78 | 100 | 88 | kinase still bound, per cent of control (RPS6KA3 KD2 (human)): 100%; kinase still bound, per cent of control (SGK1 (human)): 71%; kinase still bound, per cent of control (MAP4K4 (human)): 80% and 100%; kinase still bound, per cent of control (PIP4K2C (human)): 83%; kinase still bound, per cent of control (GSG2 (human)): 100%; kinase still bound, per cent of control (PRKD1 (human)): 86%; kinase still bound, per cent of control [2]: 66%; kinase still bound, per cent of control (STK16 (human)): 92%; kinase still bound, per cent of control (RPS6KA4 KD2 (human)): 82%; kinase still bound, per cent of control (MAP3K4 (human)): 78%; kinase still bound, per cent of control (TLK1 (human)): 100%; kinase still bound, per cent of control (BUB1 (human)): 64%; kinase still bound, per cent of control (CSNK2A1 (human)): 96%; kinase still bound, per cent of control (PAK7 (human)): 58%; kinase still bound, per cent of control (CSNK1A1 (human)): 50%; kinase still bound, per cent of control (MAPK7 (human)): 100%; kinase still bound, per cent of control (MAP4K1 (human)): 51%; kinase still bound, per cent of control (PIK3CB (human)): 6.7%
4 | COc1cc2ncnc(Nc3cccc(Cl)c3)c2cc1OC | 33 | 55 | 100 | 40 | 71 | 100 | 11 | 84 | 71 | 43 | 87 | 6.6 | 43 | 43 | 94 | 72 | 64 | 75 | 100 | 100 | kinase still bound, per cent of control (RPS6KA3 KD2 (human)): 71%; kinase still bound, per cent of control (SGK1 (human)): 68%; kinase still bound, per cent of control (PIP4K2C (human)): 31%; kinase still bound, per cent of control (FLT3 (human)): 42% and 58%; kinase still bound, per cent of control (GSG2 (human)): 100%; kinase still bound, per cent of control (PRKD1 (human)): 89%; kinase still bound, per cent of control [2]: 55%; kinase still bound, per cent of control (STK16 (human)): 97%; kinase still bound, per cent of control (RPS6KA4 KD2 (human)): 91%; kinase still bound, per cent of control (MAP3K4 (human)): 83%; kinase still bound, per cent of control (TLK1 (human)): 87%; kinase still bound, per cent of control (BUB1 (human)): 0.3%; kinase still bound, per cent of control (CSNK2A1 (human)): 19%; kinase still bound, per cent of control (PAK7 (human)): 90%; kinase still bound, per cent of control (CSNK1A1 (human)): 35%; kinase still bound, per cent of control (MAPK7 (human)): 100%; kinase still bound, per cent of control (MAP4K1 (human)): 93%; kinase still bound, per cent of control (PIK3CB (human)): 47%

From the kinase profiling compilation of Christmann-Franck et al. (2016)
